The source of these data is ChEMBL document CHEMBL1136875, “Regioselective preparation of 5-hydroxypropranolol and 4'-hydroxydiclofenac with a fungal peroxygenase” (Bioorg Med Chem Lett, 2009).

Test [1] relates to Priestia megaterium. Description: Activity of Bacillus megaterium CYP450 D6H10 mutant assessed as conversion of propranolol to 5-hydroxypropranolol at 5 mM in presence of 1 mM H2O2 and 4 mM ascorbic acid.
Test [2] concerns the target T1, Aromatic peroxygenase (Cyclocybe aegerita) (UniProt B9W4V6).
T1 sequence (whole entry): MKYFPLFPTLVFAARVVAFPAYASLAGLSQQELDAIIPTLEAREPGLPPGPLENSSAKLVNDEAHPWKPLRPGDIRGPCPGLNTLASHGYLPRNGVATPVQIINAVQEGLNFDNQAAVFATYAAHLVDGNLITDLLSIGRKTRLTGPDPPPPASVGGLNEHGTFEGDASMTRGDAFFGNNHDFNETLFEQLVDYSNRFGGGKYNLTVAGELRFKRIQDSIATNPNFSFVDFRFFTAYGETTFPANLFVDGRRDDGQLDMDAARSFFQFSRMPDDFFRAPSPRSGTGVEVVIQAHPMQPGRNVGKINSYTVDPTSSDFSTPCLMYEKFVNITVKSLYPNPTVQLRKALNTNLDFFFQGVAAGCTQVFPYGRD
Description: Activity of Agrocybe aegerita peroxygenase assessed as conversion of propranolol to 5-hydroxypropranolol at 5 mM in presence of 5 mM H2O2 and 4 mM ascorbic acid.

The test system of test [3] is Priestia megaterium. Description: Activity of Bacillus megaterium CYP450 D6H10 mutant assessed as conversion of diclofenac to 4'-hydroxydiclofenac at 5 mM in presence of 1 mM H2O2 and 4 mM ascorbic acid.
In test [4] the target is T1, Aromatic peroxygenase (Cyclocybe aegerita). As to the kind of experiment: Activity of Agrocybe aegerita peroxygenase assessed as conversion of diclofenac to 4'-hydroxydiclofenac at 5 mM in presence of 5 mM H2O2 and 4 mM ascorbic acid.

`CC(C)NCC(O)COc1cccc2ccccc12` (centres undefined): the Activity in the test with Priestia megaterium [1] amounted to 0.5%; in test [2], 13.6%.
As for `O=C(O)Cc1ccccc1Nc1c(Cl)cccc1Cl`, the Activity (with Priestia megaterium [3]; in test [4]) was 30% in each case.
